Consider two compounds from US12251383B2, “Methods and compositions for KRAS inhibitors” (The Board of Regents of the University of Texas System, priority 2019, dated 2025).

One data set has as its system HRAS^G12V. Description: Cell signaling (Western) in BHK cells expressing HRAS G12V. In kind it is cell-based, hamster. The following applies: 10 μM. As for the experimental part:
(§1) Cell signaling. The inhibitory potential of compounds was tested in monoclonal Baby Hamster Kidney (BHK) cell lines stably expressing monomeric green fluorescence protein (mGFP)-tagged KRAS^G12D, K-Ras^G12V and HRAS^G12V. Cells were cultured in Dulbecco's Modified Eagle Medium (DMEM, Hyclone) supplemented with 10% v/v bovine calf serum and incubated with compound or vehicle (DMSO) for 3 h without serum. Cells were then harvested in lysis buffer (50 mM Tris (pH 7.5), 75 mM NaCl, 25 mM NaF, 5 mM MgCl2, 5 mM EGTA, 1 mM dithiothreitol, 100 μM NaVO4, 1% Nonidet P40 plus protease inhibitors) and subjected to Western analysis controlling protein loading by BCA (bicinchoninic acid) assay. Lysates were resolved with Bio-Rad polyacrylamide TGX 10% gel, transferred to polyvinylidene fluoride (PVDF) membrane and immunoblotted using pan-AKT (2920S), GFP (2956S), pAKT^S473 (4060L), p-cRaf^S338 (9427S), p-ERK^T202/Y204 (4370L), ERK1/2 (4695S) or β-actin antibodies (Cell Signaling Technology). IC50 values were calculated with Prism 4-parameter fit.

The subject of another data set is KRAS^G12D. As to the kind of experiment: Cell signaling (Western) in BHK cells expressing KRAS G12D. In kind it is cell-based, hamster. The note with it: BHK KRAS^G12D. On the procedure:
as §1
Cell signaling assays identify compound 11 as a promising initial hit Western analysis was used to quickly assess the potential impact of the predicted hits on MAPK signaling, a major pathway mediated by KRAS. Specifically, ERK1/2 phosphorylation levels (p-ERK) were monitored in BHK cells stably expressing KRAS^G12D treated with vehicle (DMSO), the MEK inhibitor […] (U) or compound at four different concentrations (1-100 μM). […] Compounds 9 and 11 (structures for compounds 1-11 are provided in Appendix I, attached hereto), on the other hand, decreased p-ERK levels at concentrations ≥50 μM and ≥5 μM, respectively. To verify the latter observation, the experiments were repeated in an expanded concentration range starting from 0.1 μM. […] However, compound 9 (see Appendix I, attached hereto) increased p-ERK levels at 25 and 38 μM in contrast to the decrease observed at higher concentrations (FIG. S1B; see Appendix I, attached hereto).

Data set [1] concerns the target T1, KRAS^G12D-cRaf interaction (Homo sapiens, UniProt P01116, G12D).
T1 construct: expressed in transfected cells; host or cells: BHK (baby hamster kidney) cells, transient expression
As to the kind of experiment: FLIM-FRET of GFP-KRAS G12D and RFP-cRaf in BHK cells. It is filed as cell-based, hamster. The following applies: 2 μM. The text has this: [formula] where P1 is polarization of free KRAS, P2 is polarization of Raf-bound KRAS, c is the total concentration of KRAS, and x the total concentration of Raf^RBD. (FIG. 2B) Amount of GFP-KRAS^G12D pulled down by GST-Raf^RBD after treatment of cell lysates with compound at the concentrations indicated (representative Westerns are shown at the top). The RBD sequence length was 1-149 and 51-131 in the fluorescence polarization and pull-down assays, respectively. (FIG. 2C) GFP fluorescence lifetime from FLIM-FRET using cells expressing GFP-KRAS^G12D alone or with RFP-Raf, with or without treatment by 1 μM compound 11. Data are shown as mean±S.E; significance estimated by one-way analysis of variance.
Fluorescence lifetime imaging (FLIM)-fluorescence resonance energy transfer (FRET). FLIM-FRET experiments were carried out using a lifetime fluorescence imaging attachment (Lambert Instruments, The Netherlands) on an inverted microscope (43). BHK cells transiently expressing mGFP-tagged KRAS^G12D (donor), alone or with mRFP-tagged cRaf^WT (acceptor) (using 1:5 ratio), were prepared as indicated in each experiment. The samples were excited using a sinusoidally modulated 3 W 470 nm light-emitting diode at 40 MHz under epi-illumination. Fluorescein was used as a lifetime reference standard. […] The phase and modulation were determined from 12 phase settings using the manufacturer's software. […]

A further data set concerns lung cancer cells. As to the kind of experiment: Cell proliferation (CyQuant), lung cancer cells overall. In kind it is cell-based. The source says:
(FIG. 5A) Chemical structure of compounds 12, an analogue of 11 lacking the terminal methyl alcohol functional group. (FIG. 5B) Predicted binding pose of compound 12. (FIG. 5C) p-ERK and p-cRaf levels in BHK cells expressing KRAS^G12D treated with indicated concentrations of compound 12 or vehicle. (FIG. 5D) Proliferation profile of lung cancer cells upon treatment with increasing concentration of compound 12, monitored by a CyQuant assay. Data are averages over three independent experiments and error bars represent standard error. (FIG. 5E) GFP fluorescence lifetime from FLIM-FRET using cells expressing GFP-KRAS^G12D alone or together with RFP-cRaf, with or without treatment with 2 μM compound 12.
Cell proliferation. Potential effect of the ligands on cancer cell proliferation was tested in three lung cancer cells: SKLU-1, H1975 and H522. Cells were plated at ˜1,000 cell per well in a 96-well plate and maintained in full serum media with or without compound at 37° C. for 72 h changing the media with the compound every 24 h. Media with compound was prepared by serial dilution at concentrations indicated. Then cells were washed with PBS and frozen at −80° C. for a minimum of 24 h. Plates were thawed and CyQuant™ dye (in lysis buffer provided in the CyQuant™ cell proliferation assay kit, Invitrogen™) was added, and after a five-minute incubation, fluorescence (excitation: 480 nm emission: 520 nm) was measured with a Tecan Infinite M200 plate reader.

The nature of data set [2]: Solubility in DMSO and common solvents. The following applies: DMSO. It is filed as physicochemical.

“Also recorded” adds a separate entry of the source.

For `N#CC(=C(/N)Sc1ccccc1N)/C(C#N)=C(\N)Sc1ccccc1N` [Compound U0126, reference compound], the “effect on MAPK signaling” value in the data set on HRAS^G12V is “almost completely abolished”.
Consider `Cc1nn2c(N3CCN(C)CC3)cc(-c3ccccc3)nc2c1-c1ccccc1` [Compound 12], for which, in the data set on KRAS^G12D, the “concentration at which p-ERK levels are decreased” value turned out to be 2 µM and the “effect on p-cRaf levels” value is reported as “no effect”. For the same compound, in data set [1], the “KRAS-Raf interaction (FLIM-FRET)” value was “does not affect”. Further, in the data set with lung cancer cells, the “inhibition of cell proliferation relative to compound 11” value was “somewhat less effective”; the “selectivity between KRAS mutant and KRAS^WT lung cancer cells” value is listed as “better selectively profile”. The solubility result in data set [2] is reported as “less soluble; also recorded: solubility issues”.
